According to patent publication US20240009259A1, “USE OF CRASSOCEPHALUM RABENS EXTRACT IN THE PREVENTION AND/OR TREATMENT OF FATIGUE AND/OR DEPRESSION” (ACADEMIA SINICA, priority 2021, published 2024):
Counter-ions that a name gives are not always drawn.

Legend:
[1] = tested on: skeletal muscle lactate dehydrogenase (LDH); assay: Skeletal muscle lactate dehydrogenase (LDH) activity after forced swimming test; assay type: in vivo, BALB/c mice; details: Program II; male mice; Fluoxetine 10 mg/kg i.p. daily
[2] = tested on: skeletal muscle malate dehydrogenase (MDH); assay: Skeletal muscle malate dehydrogenase (MDH) activity after forced swimming test; assay type: in vivo, BALB/c mice; details: Program II; male mice; Fluoxetine 10 mg/kg i.p. daily
[3] = Blood (serum) biochemical parameters after 28-day treatment; assay type: in vivo, BALB/c mice; details: male mice, 28 days
[4] = assay type: in vivo, BALB/c mice; details: Program II; male mice; Fluoxetine 10 mg/kg i.p. daily, 4 weeks

ALB, albumin (serum) ([3]; Fluoxetine 10 mg/kg i.p. daily): 3.67 ± 0.28 g/dL
ALP, alkaline phosphatase (serum) ([3]; Fluoxetine 10 mg/kg i.p. daily): 501.2 ± 21.2 U/L
CHO, cholesterol (serum) ([3]; Fluoxetine 10 mg/kg i.p. daily): 136.5 ± 42.9 mg/dL
CTE, creatinine (serum) ([3]; Fluoxetine 10 mg/kg i.p. daily): 0.45 ± 0.05 mg/dL
GLU, glucose (serum) ([3]; Fluoxetine 10 mg/kg i.p. daily): 207.0 ± 12.6 mg/dL
GOT, glutamic oxaloacetic transaminase (serum) ([3]; Fluoxetine 10 mg/kg i.p. daily): 171.0 ± 19.8 U/L
GPT, glutamic pyruvic transaminase (serum) ([3]; Fluoxetine 10 mg/kg i.p. daily): 61.2 ± 19.2 U/L
HDL, high-density lipoprotein (serum) ([3]; Fluoxetine 10 mg/kg i.p. daily): 136.6 ± 15.3 mg/dL
LDH, lactate dehydrogenase (serum) ([3]; Fluoxetine 10 mg/kg i.p. daily): 362.7 ± 65.3 U/L
TBIL, total bilirubin (serum) ([3]; Fluoxetine 10 mg/kg i.p. daily): 0.65 ± 0.04 mg/dL
TG, triglyceride (serum) ([3]; Fluoxetine 10 mg/kg i.p. daily): 288.3 ± 27.1 mg/dL
TP, total protein (serum) ([3]; Fluoxetine 10 mg/kg i.p. daily): 5.01 ± 0.35 g/dL
UA, uric acid (serum) ([3]; Fluoxetine 10 mg/kg i.p. daily): 2.77 ± 0.32 mg/dL
SMILES: CNCCC(Oc1ccc(C(F)(F)F)cc1)c1ccccc1 (centres unmarked) [Fluoxetine, fluoxetine hydrochloride]
increase of LDH activity compared to the vehicle control treatment [1]: 1.3 fold
increase of MDH activity compared to the vehicle control treatment [2]: 1.1 fold
serum biochemical parameters ([3]; Fluoxetine i.p.): no significant difference and fall within the reference range of normal or healthy mice
body weight, feed and water intake [4]: did not have significant differences
